Consider 1 molecule from BindingDB's records for patent US20250127913 (Lycia Therapeutics, 2025).

In assay [1] the target is T1, Folate receptor beta (Homo sapiens, UniProt P14207). Put plainly: Folate Receptor SPR Assay. The method, then:
Table 16: Folate receptor SPR binding assays were conducted on a Biacore 8K instrument (Cytiva) using biotinylated folate receptor beta (Acro Biosystems). Briefly, folate receptor was immobilized at -550 RU on a streptavidin chip (Cytiva) in 10 mM HEPES pH 7.5, 150 mM NaCl, 0.05% Tween 20. Multi-cycle kinetic studies were conducted with 8 compound concentrations using 2-fold dilutions in 10 mM HEPES pH 7.5, 150 mM NaCl, 0.05 % Tween 20, 2% DMSO at 25° C. A flow rate or 75 μl/mmn with an association time of 120 s and a dissociation time of 600 s were used. Surfaces were regenerated with 4 M MgCl2 at 30 μl/min for 30 s. Data were fit to a 1:1 model to determine the reported binding parameters.

Assay [2] addresses T1, Folate receptor beta. The assay is described as follows: Folate Receptor Binding Assay. Here is the method:
Table 15: Folate receptor binding was measured in black 96-well plates using a fluorescence polarization assay. A fluorescent probe consisting of a folate analog linked to Cy5 (FR-Cy) was custom synthesized. Test compounds were resuspended in DMSO and 3-fold serial dilutions were made from 300-0.015 μM (100× final concentrations). Binding reactions were conducted in 200 μl final volume in 20 mM Hepes (pH 7.5) 250 mM NaCl 0.0150 Tween-20 1% DMSO with 2.5 nM folate receptor beta (Acro Biosystems) and 2 nM probe. Fluorescence polarization was measured using λex=620 nm, λem=688 nm on an Envision plate reader (Perkin Elmer) after 2 hr incubation time. Dose responses were conducted in duplicate and normalized to the response with DMSO (high) and 1 μM folic acid (low) on each plate. IC50 values were determined by fitting to 4-parameter curves in GraphPad Prism.

A further assay deals with Tumor necrosis factor (Homo sapiens, UniProt P01375). Put plainly: TNFα Binding Assay. Here is the method: Table 15: TNFα binding was measured in black 96-well plates using a time-resolved FRET assay using a previously described fluorescence acceptor TNFα probe (Xiao et al J. Med. Chem. 2020). Biotinylated TNFα was purchased from Acro Biosystems. Binding reactions were conducted in 20 mM Hepes (pH 7.5) 10 mM MgCl2 0.015% Tween-20 0.05 mg/ml BSA 2% DMSO with 1 nM TNFα 0.5 nM Streptavidin-Tb and 80 nM probe. Test compounds were resuspended in DMSO and 3-fold serial dilutions were made at 100× final concentrations. Fluorescence was measured using λex=340 nm, λem=490, 520 nm on an SpectraMax M5e plate reader (Molecular Devices) after 16 hr incubation time. Dose responses were conducted in duplicate and normalized to the response with DMSO (high) and 100 nM (R)-3-(1-((3-chloro-7-fluoro-6-(2-(2-hydroxypropan-2-yl)pyrimidin-5-yl)-2-methyl-1,5-naphthyridin-4-yl)amino)ethyl)-4-fluorobenzonitrile (low) on each plate. IC50 values were determined by fitting to 4-parameter curves in GraphPad Prism.
Chain of Tumor necrosis factor (P01375 whole entry): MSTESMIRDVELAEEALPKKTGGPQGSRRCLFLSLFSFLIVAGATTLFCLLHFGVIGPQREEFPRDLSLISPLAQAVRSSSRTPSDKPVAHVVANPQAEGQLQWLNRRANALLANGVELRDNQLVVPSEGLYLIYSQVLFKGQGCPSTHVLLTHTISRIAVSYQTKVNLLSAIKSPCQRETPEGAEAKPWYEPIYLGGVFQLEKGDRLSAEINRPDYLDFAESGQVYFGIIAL

T1 sequence (P14207 whole entry): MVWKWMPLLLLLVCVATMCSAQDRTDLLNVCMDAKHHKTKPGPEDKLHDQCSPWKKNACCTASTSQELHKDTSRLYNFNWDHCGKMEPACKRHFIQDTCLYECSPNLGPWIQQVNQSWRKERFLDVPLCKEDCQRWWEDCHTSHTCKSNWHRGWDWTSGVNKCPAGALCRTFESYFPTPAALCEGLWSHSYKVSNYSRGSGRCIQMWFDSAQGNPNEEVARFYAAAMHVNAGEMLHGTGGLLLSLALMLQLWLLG

As a reminder, the Kd is the constant that tells how readily two partners part at equilibrium. Higher therefore signals weaker binding. Usually IC50 stands for the concentration needed to halve the response being measured. A low value points to greater potency. On Folate receptor beta [1], `Cc1nc2cc(F)c(-c3cnc(N4CCN(C(=O)COCCn5cc(COCCOCCOCCOCCNC(=O)CC[C@H](NC(=O)[C@H]6CC[C@H](NCc7cnc8nc(N)nc(O)c8n7)CC6)C(=O)O)nn5)CC4)nc3)nc2c(N[C@H](C)c2ccccc2F)c1Cl` [US20250127913, Compound I-91] had a dissociation constant Kd of 0.201 nM. In addition, the IC50 on Folate receptor beta [2] was found to be 138 nM; at Tumor necrosis factor, 17.5 nM.
